Test results as given in publication PMC11532403 (Signal Transduction and Targeted Therapy, 2024).
Where two headings read alike, the source gives them in different places.

Legend:
[1] = Pharmacokinetics in beagles; format: in vivo; settings: both sexes, beagle, dog, plasma, iv, 1 mg/kg i.v.
[2] = tested on: cardiovascular system; assay: Cardiovascular safety pharmacology; format: in vivo; settings: males 2, 4, 6 mg/kg; females 4, 8, 12 mg/kg oral
Description: In the safety pharmacological study of cardiovascular effects, four male and four female beagles with buried implants were selected. […] The animals were evaluated by cage-side and detailed clinical observations, electrocardiogram, heart rate, body temperature and blood pressure.

[3] = tested on: TT cells (RET^C634W); assay: Proliferation assay (CellTiter-Glo); format: cell-based; settings: Homo sapiens, 72 hours, read-out: Cellular Viability IC50
Description: The cell lines HEK293T, Baf3, TT cell and NIH-3T3 were obtained from the Cell Resource Center, Peking Union Medical College (PCRC). […] All stably transformed BaF3 cells were cultured in RPMI 1640 without IL‐3. […] Cells were cultured at 37 °C under 5 % CO2 and high humidity conditions. […] Cell viability was assessed by luminescence using CellTiter-Glo 2.0 assay (Promega). IC50 curve fitting was performed using GraphPad Prism 9.0.

[4] = tested on: SD rats; assay: 28-day repeat-dose toxicity; format: in vivo
[5] = 28-day repeat-dose toxicity; format: in vivo; settings: SD, rat, plasma, po; for AUC(0-t): read-out: AUClast at STD10, day 28; for Cmax: read-out: Cmax at STD10, day 28
[6] = tested on: RET alterations in ctDNA; assay: ctDNA profiling (1021-gene NGS panel); format: in vivo, human; settings: Cycle 1 Day 28, of 23 patients
Description: A retrospective analysis of circulating tumor DNA (ctDNA) profiling was performed using longitudinal plasma samples obtained at baseline, Cycle 1 Day 28, and post-progressive disease. At baseline, blood samples from all patients were subjected for NGS. Among them, 67 (54.9%) patients had detectable RET alterations in ctDNA, including KIF5B-RET (51/122, 41.8%), CCDC6-RET (5/122, 4.1%), NCOA4-RET (3/122, 2.5%), RET^M918T mutation (7/122, 5.7%) and other RET variation (1/122, 0.8%).
For molecular profiling, plasma samples were collected at baseline, Cycle 1 Day 28, and post-progressive disease, and the ctDNA were isolated for analysis. Gene alteration status was analyzed at a central laboratory using a validated, commercially available 1021-gene NGS panel (GenePlus, Beijing, China).

[7] = tested on: Baf3-CCDC6-RET WT cells; assay: Proliferation assay (CellTiter-Glo); format: cell-based, murine; settings: Mus musculus, read-out: Cellular Viability IC50
Description: (§1) The cell lines HEK293T, Baf3, TT cell and NIH-3T3 were obtained from the Cell Resource Center, Peking Union Medical College (PCRC). HEK293T and NIH-3T3 were maintained in DMEM high glucose medium (#C3113-0500, Vivacell) supplemented with 10 % FBS (#10500064, Gibco) and 1 % Penicillin-Streptomycin (#15140122, Gibco). The murine Pro‐B cell line Baf3 was cultured in RPMI 1640 medium (#C3010, Vivacell) supplemented with 10 % FBS, 1 % Penicillin-Streptomycin and 1 ng/mL recombinant murine interleukin-3 (#213-13, PeproTech). All stably transformed BaF3 cells were cultured in RPMI 1640 without IL‐3. The TT MTC cell was grown in Ham's F-12K medium (#21127022, Gibco) supplemented with 10 % FBS and 1 % Penicillin-Streptomycin. Cells were cultured at 37 °C under 5 % CO2 and high humidity conditions.
(§2) KIF5B-RET, CCDC6-RET and mutations were cloned into pCDHL vector and were verified by sequencing. Reah RET expression vectors were separately co‐transfected with psPAX2 and pMD2.G packaging plasmids into 60-70% confluent HEK 293T cells maintained in 2 mL of culture medium in six‐well plates using Polyethyleneimine (PEI) transfection grade. Virus containing media was harvested after 48 h and filtered with 0.45 μm membrane and stored at -80 °C prior to infection. For infection of Ba/F3 cells, 1 mL of viral supernatant and 8 μg/mL polybrene were added to 5 million cells per well in six‐well plates. Infected cells were selected with the addition of 1 μg/mL puromycin for 2 weeks in RPMI-1640/ 10% FBS/ 1 ng/mL IL-3 medium. Subsquently, puromycin-resistant cells were cultured in IL-3-free medium for 1 week and RET fusion proteins were confirmed by immunoblot analysis.
(§3) Cell viability was assessed by luminescence using CellTiter-Glo 2.0 assay (Promega). IC50 curve fitting was performed using GraphPad Prism 9.0.

[8] = tested on: Baf3-CCDC6-RET V804M cells; assay: Proliferation assay (CellTiter-Glo); format: cell-based, murine; settings: Mus musculus, read-out: Cellular Viability IC50
Description: as §1, §2, §3

[9] = tested on: Baf3-KIF5B-RET M918T cells; assay: Proliferation assay (CellTiter-Glo); format: cell-based, murine; settings: Mus musculus, read-out: Cellular Viability IC50
Description: as §1, §2, §3

[10] = tested on: Baf3-KIF5B-RET WT cells; assay: Proliferation assay (CellTiter-Glo); format: cell-based, murine; settings: Mus musculus, read-out: Cellular Viability IC50
Description: as §1, §2, §3

[11] = tested on: Baf3-KIF5B-RET V804M cells; assay: Proliferation assay (CellTiter-Glo); format: cell-based, murine; settings: Mus musculus, read-out: Cellular Viability IC50
Description: as §1, §2, §3

[12] = tested on: Baf3-CCDC6-RET M918T cells; assay: Proliferation assay (CellTiter-Glo); format: cell-based, murine; settings: Mus musculus, read-out: Cellular Viability IC50
Description: as §1, §2, §3

[13] = Plasma protein binding, rapid equilibrium dialysis; format: in vitro ADME; settings: rat, read-out: Plasma protein binding rate (converted)
[14] = target: T1, CYP2C8 (Homo sapiens, UniProt P10632); assay: CYP inhibition in human liver microsomes; format: in vitro ADME; settings: 0.5-25 μM
T1 construct: substrates of different CYP450 enzymes in mixed human liver microsomes; from tissue; host or cells: mixed human liver microsomes

[15] = preclinical SD rat repeated administration

T1 sequence (P10632 whole entry): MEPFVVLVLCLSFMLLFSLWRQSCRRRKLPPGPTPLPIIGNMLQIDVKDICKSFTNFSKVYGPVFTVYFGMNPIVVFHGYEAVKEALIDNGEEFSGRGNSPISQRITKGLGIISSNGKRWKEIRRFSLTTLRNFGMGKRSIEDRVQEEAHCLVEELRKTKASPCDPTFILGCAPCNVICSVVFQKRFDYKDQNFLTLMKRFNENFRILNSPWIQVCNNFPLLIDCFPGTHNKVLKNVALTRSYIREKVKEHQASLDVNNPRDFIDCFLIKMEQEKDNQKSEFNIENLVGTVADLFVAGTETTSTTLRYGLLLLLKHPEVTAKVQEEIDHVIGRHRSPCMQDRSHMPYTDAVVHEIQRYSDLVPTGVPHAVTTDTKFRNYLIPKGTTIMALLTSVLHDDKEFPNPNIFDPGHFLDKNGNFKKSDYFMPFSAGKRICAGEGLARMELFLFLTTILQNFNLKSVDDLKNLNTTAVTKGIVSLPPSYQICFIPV

COc1ccc(CN2C3CC2CN(c2ccc(-c4cc(N5CC(C)(O)C5)cn5ncc(C#N)c45)cn2)C3)cn1 [SY-5007, 6-(3-hydroxy-3-methylazetidin-1-yl)-4-(6-(6-((6-methoxypyridin-3-yl)methyl)-3,6-diazabicyclo[3.1.1]heptan-3-yl)pyridin-3-yl)pyrazolo[1,5-a]pyridine-3-carbonitrile]
clearance [1]: 6.63 mL/min/kg | half-life [1]: 3.27 h | Vd ([1]; read-out: Vss): 1.43 L/kg | Cardiovascular effects [2]: None of the changes were found to be related to the study drug | IC50 [3]: 9.11 nM | STD10 ([4]; female SD rats, GLP long toxicity study): 60 mg/kg | STD10 ([4]; females, 28 days): 60 mg/kg | STD10 ([4]; male SD rats, GLP long toxicity study): 30 mg/kg | STD10 ([4]; males, 28 days): 30 mg/kg | Electrolyte abnormalities (blood PK) [4, 15]: ? Abnormalities such as blood PK were found in the preclinical SD rat and Beagle repeated administration test of this product, and the relevant regulations were carried out in consideration of the fact that similar mechanism of action drugs have been reported. | Plasma protein: TP, ALB, A/G [4, 15]: ? TP, ALB, A/G were abnormal in the repeated administration test of preclinical SD rats of this product, and considering that drugs with similar mechanisms of action have been reported, relevant provisions are made. | TG (hyperlipidemia) [4, 15]: ? TG is abnormal in the repeated administration test of preclinical SD rats of this product, and considering that drugs with similar mechanisms of action have been reported, relevant provisions are made. | Bleeding tendency: gastric mucosa and ileum findings ([4]; preclinical SD rats, repeated dosing): ? This drug was found to have gastric mucosal reddening and ileal discolouration in preclinical SD rats and Beagle dogs in repeated dosing tests, so the relevant provisions were made. | Kidney: creatinine ([4]; repeat dose study in SD rats): elevated creatinine | AUC(0-t) ([5]; female, females 60 mg/kg): 122 µg·h/mL | Cmax ([5]; female, females 60 mg/kg): 14900 ng/mL | AUC(0-t) ([5]; male, males 30 mg/kg): 111 µg·h/mL | Cmax ([5]; male, males 30 mg/kg): 8160 ng/mL | Patients with complete RET clearance in ctDNA [6]: 21 patients | IC50 [7]: 10.2 nM | IC50 [8]: 27.1 nM | IC50 [9]: 13.6 nM | IC50 [10]: 9.65 nM | IC50 [11]: 45.3 nM | IC50 [12]: 5.44 nM | fraction unbound [13]: 0.034 | IC50 [14]: 9750 nM
